The results in this text go back to patent US9980943B2, “Methods of treating muscular dystrophy” (BOARD OF REGENTS OF THE NEVADA SYSTEM OF HIGHER EDUCATION, …, priority 2013, dated 2018).

Common to all, as to assay type: cell-based, mouse
The test system of test [1] is α7 integrin (LacZ reporter in α7βgal+/− myoblasts). Description: Myoblast α7+/LacZ integrin FDG assay (Burkin assay in myoblasts, 96-well). The following applies: 96-well; for Burkin Assay in Myoblasts, value relative to DMSO: SU9516 analogs, N=3-6; for Burkin Assay in Myoblasts, signal relative to DMSO: α7+/LacZ myoblasts.
Test [2] concerns α7 integrin (LacZ reporter in α7+/LacZ myotubes). As to the kind of experiment: Myotube α7 integrin FDG assay (Burkin assay in myotubes, 96-well). The note with it: for Burkin Assay in Myotubes, value relative to DMSO: SU9516 analogs, 96-well, N=3-6.
In test [3] the test system is β-galactosidase in CMV-LacZ C2C12 myoblasts. As to the kind of experiment: CMV-LacZ secondary screen in C2C12 myoblasts (β-Gal stabilizing assay). The note with it: for CMV-LACZ in Myoblasts, value relative to DMSO: SU9516 analogs, C2C12 CMV-LacZ, N=2; for CMV-LACZ in Myoblasts (β-galactosidase activity relative to DMSO): CMV-LacZ C2C12 myoblasts. Summed up: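 Stable CMV-LacZ C2C12 clone; six-point curve 0.5–40 μM; duplicates.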

The test system of test [4] is β-galactosidase in CMV-LacZ C2C12 myotubes. Description: CMV-LacZ secondary screen in C2C12 myotubes (β-Gal stabilizing assay). The note with it: for CMV-LACZ in Myotubes, value relative to DMSO: SU9516 analogs, C2C12 CMV-LacZ, N=2; for CMV-LACZ in Myotubes, signal relative to DMSO: C2C12 CMV-LacZ myotubes, fold relative to DMSO. Summed up: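 β-Gal level was the read-out, measured in a clonal C2C12 line expressing LacZ from a CMV promoter. Dose-response curves used six concentrations, 0.5 μM up to 40 μM, with duplicate points.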

As to `Cc1ccc(/C=C2\C(=O)Nc3ccccc32)o1` [MLS000391588-01], the “Burkin Assay in Myoblasts, value relative to DMSO” value in test [1] (0.5 uM) is on record as 1.07; in test [1] (1 uM) it was 1.015; in test [1] (5 uM) it was 0.9119; in test [1] (10 uM), 0.8176; in test [1] (20 uM), 0.7804; in test [1] (40 uM) it was 0.3005. Further, the “Burkin Assay in Myotubes, value relative to DMSO” value in test [2] (0.5 uM) stood at 1.073; in test [2] (1 uM), 0.9563; in test [2] (5 uM), 0.8994; in test [2] (10 uM), 0.9356; in test [2] (20 uM), 0.7631; in test [2] (40 uM) it was 0.664. The “CMV-LACZ in Myoblasts, value relative to DMSO” value in test [3] (0.5 uM) was determined as 1.0009; in test [3] (1 uM), 0.7411; in test [3] (5 uM), 0.9885; in test [3] (10 uM), 1.0968; in test [3] (20 uM), 1.4307; in test [3] (40 uM), 1.1119. The “CMV-LACZ in Myotubes, value relative to DMSO” value was 0.8400 in test [4] (0.5 uM); 1.0010 in test [4] (1 uM); 1.0019 in test [4] (5 uM); 0.9740 in test [4] (10 uM); 0.9212 in test [4] (20 uM); 0.9094 in test [4] (40 uM).

Turning to `COc1cc(NC(=O)OCc2ccccc2)c2ncccc2c1` [MLS002667707-01], the “Burkin Assay in Myoblasts, signal relative to DMSO” value was 1.0156 in test [1] (0.5 uM); 0.9172 in test [1] (1 uM); 1.02 in test [1] (5 uM); 1.235 in test [1] (10 uM); 0.9347 in test [1] (20 uM); 0.8314 in test [1] (40 uM). The “Burkin Assay in Myotubes, α7 integrin LacZ reporter signal relative to DMSO” value in test [2] (0.5 uM) is reported as 0.9955; in test [2] (1 uM), 1.01; in test [2] (5 uM), 0.8939; in test [2] (10 uM) it was 0.954; in test [2] (20 uM) it was 0.8049; in test [2] (40 uM), 0.7617. The “CMV-LACZ in Myoblasts (β-galactosidase activity relative to DMSO)” value in test [3] (0.5 uM) is listed as 1.1434; in test [3] (1 uM), 0.6763; in test [3] (5 uM), 1.1897; in test [3] (10 uM) it was 1.0803; in test [3] (20 uM), 1.0044; in test [3] (40 uM), 1.1226. For the same compound, the “CMV-LACZ in Myotubes, signal relative to DMSO” value came out at 0.8905 in test [4] (0.5 uM); 1.0590 in test [4] (1 uM); 0.9449 in test [4] (5 uM); 1.0227 in test [4] (10 uM); 1.1576 in test [4] (20 uM); 1.1071 in test [4] (40 uM).
